Experimental data as given in article PMC11189555, “Aryl amino acetamides prevent Plasmodium falciparum ring development via targeting the lipid-transfer protein PfSTART1” (Nature Communications, 2024).
Several values for one entry are separate records, joined by “and”; a condition that tells them apart may be missing. Equal entries are not always repeated. Where two headings read alike, the source gives them in different places.

Tested on: SLI-N330K parasites
Experiment: Growth inhibition assay (72 h, LDH activity)
Type: cell-based, Plasmodium falciparum
Details: for Growth inhibition, (1 - av / DMSO) x 100: Fig 2B source data, per biological replicate; for EC50: Plasmodium falciparum
Procedure: Parasite growth assays with inhibitory compounds were performed as per[11] and are fully described in the Supplementary Information.
Molecular biology and transfection of P. falciparum: Selection Linked Integration […]
To introduce the PfSTART1 mutations, the second half of the coding sequence of pfstart1 (PF3D7_0104200), was recodonised without introns to the bias of Saccharomyces cerevisiae containing either WT, N309K or N330K mutations, and synthesised as gBlock fragments (Integrated DNA Technologies). The first 819 bp of the 5′ native sequence of pfstart1 was amplified from gDNA, to form the 5’ homology block (5’ HB). The 3′ recodonised gBlock fragment comprising of the last 552 bp of either the WT, N309K or N330K pfstart1 to form the ‘recodon’ block (primers listed in Table S2). The 5’ HB and recodon products were sewn together by overlapping PCR to reconstitute the full coding sequence of pfstart1. These blocks (WT/N309K/N330K) were digested with BglII/PstI, and inserted into the parasite vector p-HA-2A-Neo-glmS
1. This plasmid contains an in -frame haemagglutinin (HA) epitope for protein identification and a P2A peptide (2A) to skip continuous peptide bond synthesis of a downstream neomycin resistance gene ( NeoR).
Parasites containing the transfected DNA were selected using 2.5 nM WR99210 (Jacobus). To select for parasites in which single crossover integration had occurred into the pfstart1 locus, parasites were treated with 400 μg/mL G418 (geniticin, Sigma Aldrich) for 14 days: only parasites that have integrated the construct into their genome expressed the neomycin resistance gene together with the PfSTART1 protein.
Parasite lines were cloned using limiting dilution. These clones were then tested on Western Blot (for correct HA-tagging and protein size), and correct integration and sequence were tested by PCR analysis: PCR on the gDNA was conducted using the primers START_5’UTR.F and START_Seq.R (Table S2). […]
Growth inhibition assays. Synchronised ring-stage parasites (0.3-0.6% parasitemia, 2% haematocrit) were grown for 72 h in a serial-dilution of the compound under […]
and compound 4. Note that M-833 was first purchased from MolPort (MolPort -002-267-916) then made in-house at WEHI: the differences observed in EC50s across experiments are attributed to the different batches of M -833. For some experiments, 0, 0.25 or 2.5 mM of glucosamine (GlcN) was also added. Experiments were set up in technical duplicates or triplicates. Following a freeze -thaw cycle, lactate dehydrogenase (LDH) activity was assessed as an indicator of parasite growt h 5. 30 μL of parasite culture was incubated for 30 min in the dark with 75 μL Malstat mixture (0.1 M Tris pH 9.0, 20 g/L lactic acid, pH 7.5, 0.2% Triton-X100, 0.5 g/L acetylpyridine adenine dinucleotide (APAD, Sigma), 200 μg/mL nitroblue tetrazolium (NBT; Sigma), 1 μg/mL phenozine ethosulfate (PES; Sigma)). Absorbance was then measured at 650 nm, transformed using the formula below, plotted against the logarithm of the concentrations, and a non-linear regression (log(inhibitor) vs. response, variable slope) was calculated using GraphPad Prism to assess the half-inhibitory […]
Growth inhibition % = (1 − average(sample)− average(uRBC)) ∗ 100 […]
The DMSO samples were also used to assess growth of parasite in the presence of 0.25 and 2.5 mM GlcN (normalised by DMSO in 0 mM GlcN).
Egress, invasion & recovery assay. To measure egress, invasion and follow up recovery in the presence of different compounds, we adapted the method developed in6, using Hyp1-Nluc parasites7. These parasites episomally express the exported PEXEL protein Hyp1 (PF3D7_0113300) tagged with a NanoLuc luciferase (NLuc) and were selected with 2.5 nM WR99210 (Jacobus). Highly synchronised schizonts were obtained using ML10 (LifeArc) and sorbitol synchronisation, and Percoll-purified (the culture was gently layered over 67% Percoll (Cytiva) in RPMI, and centrifuged for 15 min at 1500 g and the schizont layer was collected and washed). […]

With `Cc1cc(Cl)c(S(=O)(=O)N2CCCC2)cc1OCC(=O)NC1CCCCC1` [M-833] the sample/DMSO (0.123457 uM M-833, START(N330K), 0.25 mM GlcN, biological replicate 4) was -2.981, the sample/DMSO (0.123457 uM M-833, START(N330K), 2.5 mM GlcN, biological replicate 1) was 25.4075 and the sample/DMSO (0.123457 uM M-833, START(N330K), 2.5 mM GlcN, biological replicate 2) was 9.59. For the same molecule, the sample/DMSO (0.123457 uM M-833, START(N330K), 2.5 mM GlcN, biological replicate 3) was 1.226, the sample/DMSO (0.123457 uM M-833, START(N330K), 2.5 mM GlcN, biological replicate 4) was -0.1405 and the sample/DMSO (0.37037 uM M-833, START(N330K), 0 mM GlcN, biological replicate 1) was 19.3431. For the same molecule, the sample/DMSO (0.37037 uM M-833, START(N330K), 0 mM GlcN, biological replicate 2) was 2.274, the sample/DMSO (0.37037 uM M-833, START(N330K), 0 mM GlcN, biological replicate 3) was 7.66 and the sample/DMSO (0.37037 uM M-833, START(N330K), 0 mM GlcN, biological replicate 4) was -3.175. The sample/DMSO (0.37037 uM M-833, START(N330K), 0.25 mM GlcN, biological replicate 1) was 19.0968, the sample/DMSO (0.37037 uM M-833, START(N330K), 0.25 mM GlcN, biological replicate 2) was 15.8158 and the sample/DMSO (0.37037 uM M-833, START(N330K), 0.25 mM GlcN, biological replicate 3) was 6.853. For the same molecule, the sample/DMSO (0.37037 uM M-833, START(N330K), 0.25 mM GlcN, biological replicate 4) was -2.547, the sample/DMSO (0.37037 uM M-833, START(N330K), 2.5 mM GlcN, biological replicate 1) was 28.3178 and the sample/DMSO (0.37037 uM M-833, START(N330K), 2.5 mM GlcN, biological replicate 2) was 11.3273. The sample/DMSO (0.37037 uM M-833, START(N330K), 2.5 mM GlcN, biological replicate 3) was 5.76, the sample/DMSO (0.37037 uM M-833, START(N330K), 2.5 mM GlcN, biological replicate 4) was 6.979 and the sample/DMSO (1.11111 uM M-833, START(N330K), 0 mM GlcN, biological replicate 1) was 22.4532. The sample/DMSO (1.11111 uM M-833, START(N330K), 0 mM GlcN, biological replicate 2) was 7.959, the sample/DMSO (1.11111 uM M-833, START(N330K), 0 mM GlcN, biological replicate 3) was 16.7199 and the sample/DMSO (1.11111 uM M-833, START(N330K), 0 mM GlcN, biological replicate 4) was 4.969. For the same molecule, the sample/DMSO (1.11111 uM M-833, START(N330K), 0.25 mM GlcN, biological replicate 1) was 24.0145, the sample/DMSO (1.11111 uM M-833, START(N330K), 0.25 mM GlcN, biological replicate 2) was 17.1338 and the sample/DMSO (1.11111 uM M-833, START(N330K), 0.25 mM GlcN, biological replicate 3) was 18.125. It also gave a sample/DMSO (1.11111 uM M-833, START(N330K), 0.25 mM GlcN, biological replicate 4) of 8.022, a sample/DMSO (1.11111 uM M-833, START(N330K), 2.5 mM GlcN, biological replicate 1) of 36.9907 and a sample/DMSO (1.11111 uM M-833, START(N330K), 2.5 mM GlcN, biological replicate 2) of 15.1494. For the same molecule, the sample/DMSO (1.11111 uM M-833, START(N330K), 2.5 mM GlcN, biological replicate 3) was 17.4656, the sample/DMSO (1.11111 uM M-833, START(N330K), 2.5 mM GlcN, biological replicate 4) was 7.728 and the “Growth inhibition, (1 - av / DMSO) x 100” value (SLI-N330K, M-833 conc 0.00304832 (unit not given)) was -17.2829% and -4.43% and -6.85%. For the same molecule, the “Growth inhibition, (1 - av / DMSO) x 100” value (SLI-N330K, M-833 conc 0.00914495 (unit not given)) was -20.2465% and -6.679% and -8.021%, the “Growth inhibition, (1 - av / DMSO) x 100” value (SLI-N330K, M-833 conc 0.0274348 (unit not given)) was -22.4472% and -9.048% and -10.9244% and the “Growth inhibition, (1 - av / DMSO) x 100” value (SLI-N330K, M-833 conc 0.0823045 (unit not given)) was -27.3474% and -6.202% and -4.991%. The “Growth inhibition, (1 - av / DMSO) x 100” value (SLI-N330K, M-833 conc 0.246914 (unit not given)) was -20.5399% and -4.464% and 0.9677%, the “Growth inhibition, (1 - av / DMSO) x 100” value (SLI-N330K, M-833 conc 0.740741 (unit not given)) was -11.4437% and -0.9712% and 2.699% and the “Growth inhibition, (1 - av / DMSO) x 100” value (SLI-N330K, M-833 conc 2.22222 (unit not given)) was 10.9155% and 8.4% and 12.8088%. For the same molecule, the “Growth inhibition, (1 - av / DMSO) x 100” value (SLI-N330K, M-833 conc 6.66667 (unit not given)) was 48.6796% and 44.0109% and 38.2735%, the “Growth inhibition, (1 - av / DMSO) x 100” value (SLI-N330K, M-833 conc 20 (unit not given)) was 69.4542% and 76.7081% and 72.5236% and the sample/DMSO (M-833 3.33333 uM, START(N330K), 0 mM GlcN, biological replicates 1-4) was 23.2009 and 27.766 and 32.1009 and 22.2063. The sample/DMSO (M-833 3.33333 uM, START(N330K), 0.25 mM GlcN, biological replicates 1-4) was 36.1845 and 29.2292 and 28.75 and 22.2222, the sample/DMSO (M-833 3.33333 uM, START(N330K), 2.5 mM GlcN, biological replicates 1-4) was 45.6636 and 29.3607 and 33.6678 and 26.3232 and the sample/DMSO (M-833 10 uM, START(N330K), 0 mM GlcN, biological replicates 1-4) was 60.4059 and 63.1206 and 59.1558 and 63.3004. The sample/DMSO (M-833 10 uM, START(N330K), 0.25 mM GlcN, biological replicates 1-4) was 65.2315 and 63.5636 and 70.0446 and 58.3469, the sample/DMSO (M-833 10 uM, START(N330K), 2.5 mM GlcN, biological replicates 1-4) was 68.4226 and 62.1265 and 64.6971 and 47.1194 and the EC50 (Fig 2B, SLI-N330K, 72 h, n = 3, unit only in x-axis title, read-out: EC50 (95% confidence interval)) was 6.27 µM. The EC50 (Fig 3C, SLI-N330K, 2.5 mM GlcN, n = 4, unit on plot axis, read-out: EC50 M-833 (95% confidence interval)) was over 3 µM and the “fold more resistant than the 3D7 parental parasites” value (SLI-N330K, Fig 2B) was 64 fold.
